Reference: ChEMBL document CHEMBL4428125, “8-Substituted 1,3-dimethyltetrahydropyrazino[2,1-f]purinediones: Water-soluble adenosine receptor antagonists and monoamine oxidase B inhibitors” (Bioorg Med Chem, 2016)

What was measured:
Adenosine receptor A1 = biological target: T1, Adenosine receptor A1 (Homo sapiens, UniProt P30542); assay: Displacement of [3H]CCPA from human A1 receptor expressed in CHO cell membrane by liquid scintillation counting method; format: cell membranes
T1 sequence (P30542 whole entry): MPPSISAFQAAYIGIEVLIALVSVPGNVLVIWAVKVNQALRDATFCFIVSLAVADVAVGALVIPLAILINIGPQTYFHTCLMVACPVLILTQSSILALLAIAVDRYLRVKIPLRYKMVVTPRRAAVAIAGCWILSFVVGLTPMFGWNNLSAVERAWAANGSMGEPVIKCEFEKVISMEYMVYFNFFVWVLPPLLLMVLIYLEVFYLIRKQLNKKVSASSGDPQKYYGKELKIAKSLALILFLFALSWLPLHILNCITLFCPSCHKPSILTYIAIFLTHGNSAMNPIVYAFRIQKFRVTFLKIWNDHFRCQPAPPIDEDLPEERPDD

Adenosine receptor A2a = Adenosine receptor A2a (Homo sapiens, UniProt P29274); assay: Displacement of [3H]MSX from human A2A receptor measured after 30 mins by liquid scintillation counting method
[1] = biological target: T2, Amine oxidase [flavin-containing] A (Homo sapiens, UniProt P21397); assay: Inhibition of recombinant human MAO-A expressed in baculovirus infected BTI insect cells preincubated for 30 mins followed by addition of p-tyramine as substrate measured over 45 mins by Amplex Red MAO assay
T2 sequence (P21397 whole entry): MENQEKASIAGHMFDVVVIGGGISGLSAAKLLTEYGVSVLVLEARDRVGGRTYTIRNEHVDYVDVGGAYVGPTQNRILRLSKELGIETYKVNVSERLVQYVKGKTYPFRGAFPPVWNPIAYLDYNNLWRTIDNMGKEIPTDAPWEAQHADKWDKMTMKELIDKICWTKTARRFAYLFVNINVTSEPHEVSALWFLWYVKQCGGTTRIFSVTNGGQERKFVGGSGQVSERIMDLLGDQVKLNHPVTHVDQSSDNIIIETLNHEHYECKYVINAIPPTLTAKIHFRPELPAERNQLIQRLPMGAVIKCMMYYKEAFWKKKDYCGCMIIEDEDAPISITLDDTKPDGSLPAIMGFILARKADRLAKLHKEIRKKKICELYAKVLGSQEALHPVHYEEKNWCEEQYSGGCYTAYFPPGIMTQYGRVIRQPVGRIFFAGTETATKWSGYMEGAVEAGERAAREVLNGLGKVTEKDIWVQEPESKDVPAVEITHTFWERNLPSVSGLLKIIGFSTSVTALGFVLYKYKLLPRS

[2] = biological target: T2, Amine oxidase [flavin-containing] A; assay: Inhibition of recombinant human MAO-A expressed in baculovirus infected BTI insect cells at 10 uM preincubated for 30 mins followed by addition of p-tyramine as substrate measured over 45 mins by Amplex Red MAO assay relative to control; conditions: 0.75 h
[3] = biological target: T3, Amine oxidase [flavin-containing] B (Homo sapiens, UniProt P27338); assay: Inhibition of recombinant human MAO-B expressed in baculovirus infected BTI insect cells preincubated for 30 mins followed by addition of p-tyramine as substrate measured over 45 mins by Amplex Red MAO assay
T3 sequence (P27338 whole entry): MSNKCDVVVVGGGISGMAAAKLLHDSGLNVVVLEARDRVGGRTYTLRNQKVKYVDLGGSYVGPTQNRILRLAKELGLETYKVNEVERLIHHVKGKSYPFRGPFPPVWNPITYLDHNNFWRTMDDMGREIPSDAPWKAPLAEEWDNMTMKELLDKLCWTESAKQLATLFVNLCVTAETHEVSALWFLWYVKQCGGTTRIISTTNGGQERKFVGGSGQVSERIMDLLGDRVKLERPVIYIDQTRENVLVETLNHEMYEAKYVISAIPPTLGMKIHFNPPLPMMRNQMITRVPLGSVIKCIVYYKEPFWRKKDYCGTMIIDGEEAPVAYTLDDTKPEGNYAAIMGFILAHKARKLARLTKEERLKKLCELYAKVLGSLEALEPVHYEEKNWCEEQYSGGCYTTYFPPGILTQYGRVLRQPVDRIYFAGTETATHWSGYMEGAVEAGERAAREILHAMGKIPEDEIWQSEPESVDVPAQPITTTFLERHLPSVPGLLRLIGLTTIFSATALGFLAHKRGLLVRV

Adenosine receptor A2b = biological target: T4, Adenosine receptor A2b (Homo sapiens, UniProt P29275); assay: Displacement of [3H]PSB-603 from human A2B receptor expressed in CHO cell membrane; format: cell membranes
T4 sequence (P29275 whole entry): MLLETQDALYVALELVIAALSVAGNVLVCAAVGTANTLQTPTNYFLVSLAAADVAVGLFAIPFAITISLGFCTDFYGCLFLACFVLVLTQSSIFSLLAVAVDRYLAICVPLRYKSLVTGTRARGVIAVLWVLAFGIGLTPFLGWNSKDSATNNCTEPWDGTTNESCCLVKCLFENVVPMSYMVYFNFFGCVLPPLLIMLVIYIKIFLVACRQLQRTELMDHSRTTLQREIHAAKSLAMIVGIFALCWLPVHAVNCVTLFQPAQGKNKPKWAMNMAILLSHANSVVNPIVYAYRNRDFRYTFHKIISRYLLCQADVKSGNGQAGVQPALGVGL

Adenosine receptor A3 = biological target: T5, Adenosine receptor A3 (Homo sapiens, UniProt P0DMS8); assay: Displacement of [3H]PSB-11 from human A3 receptor expressed in CHO cell membrane by liquid scintillation counting method relative to control; format: cell membranes
T5 sequence (P0DMS8 whole entry): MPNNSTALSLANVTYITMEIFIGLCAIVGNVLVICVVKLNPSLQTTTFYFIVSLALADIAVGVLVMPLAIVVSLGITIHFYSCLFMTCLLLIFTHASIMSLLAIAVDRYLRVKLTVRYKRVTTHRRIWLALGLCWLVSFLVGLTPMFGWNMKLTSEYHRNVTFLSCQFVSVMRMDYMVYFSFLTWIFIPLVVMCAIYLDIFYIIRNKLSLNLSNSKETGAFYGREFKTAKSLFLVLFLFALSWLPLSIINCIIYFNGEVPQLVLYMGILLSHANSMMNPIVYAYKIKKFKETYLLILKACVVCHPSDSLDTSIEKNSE

Chain of Adenosine receptor A2a (P29274 whole entry): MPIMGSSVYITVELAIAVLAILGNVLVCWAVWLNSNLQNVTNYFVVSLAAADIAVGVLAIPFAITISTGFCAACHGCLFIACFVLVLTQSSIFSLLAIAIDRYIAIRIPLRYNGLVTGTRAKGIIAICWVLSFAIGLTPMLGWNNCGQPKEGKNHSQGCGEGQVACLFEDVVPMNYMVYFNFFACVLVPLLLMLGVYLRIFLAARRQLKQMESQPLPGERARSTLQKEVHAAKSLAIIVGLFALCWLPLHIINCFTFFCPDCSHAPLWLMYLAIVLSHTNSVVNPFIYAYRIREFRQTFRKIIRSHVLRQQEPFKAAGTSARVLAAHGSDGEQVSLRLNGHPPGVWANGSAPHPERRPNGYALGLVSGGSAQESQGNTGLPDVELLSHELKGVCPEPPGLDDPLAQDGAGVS

Ki (Adenosine receptor A1) [nM]	Ki (Adenosine receptor A2a) [nM]	IC50 [1] [nM]	inhibition at 10 µM [2] [%]	IC50 [3] [nM]	Ki (Adenosine receptor A2b) [nM]	Ki (Adenosine receptor A3) [nM]	Structure (SMILES)
≥ 10000	8860	> 10000	4	385	> 1000	> 10000	Cn1c(=O)c2c(nc3n2CCN(c2cccc(Cl)c2)C3)n(C)c1=O
393	595	> 10000	14	210	> 300	14000	Cn1c(=O)c2c(nc3n2CCN([C@@H]2CCCc4ccccc42)C3)n(C)c1=O
